Measurements: patent US12577138B2, “Using Daphnia for bioremediation” (priority 2019, dated 2026)

System: Daphnia magna genotype pools
Assay: Viability of Daphnia magna genotype pools (1999, 1980, 1960) exposed to Carbaryl for four weeks
Type: in vivo
Conditions: Carbaryl 10 μg/L
Method: The ability to thrive of different Daphnia magna genotype pools resurrected from 1999, 1980, and 1960, was tested in presence of high concentrations of the carbamate insecticide Carbaryl (10 μg/L). Carbamate pesticides have been used at high levels since the 1970s, and so carbamate pesticides represent a common contaminant to current wastewater.
The three genotype pools were exposed to high concentrations of the carbamate insecticide Carbaryl in replicated large aquaria of 10 L. The aquaria contained borehole water to which a known concentration of Carbaryl was added. Each pool comprised different genotypes but the number of individuals in each pool was identical.
Prior to the exposure, the genotypes were individually cultured for two generations in the following conditions to control for maternal effects and synchronize reproduction: 20° C.; long photoperiod (16:8 light:dark regime); feed daily with 0.8 mg Carbon/L of C. vulgaris; medium was renewed every second day. After this phase, five 24-48 h old juveniles from the second brood of the third generation from 7 genotypes of each pool were randomly assigned to three replicated 10 L aquaria resulting in a total of 105 animals per aquarium (5 juveniles×7 genotypes×3 pools). The aquaria were then exposed to Carbaryl for four weeks (3 clonal generations). […]
The initial occurrence of each pool of genotypes was then compared to the random subset of animals sampled at the end of the experiment and genetically fingerprinted. This allowed to quantify changes in the occurrence of pool of genotypes from the three initially equally inoculated three pools. Changes in the occurrence of each pool of genotypes between the inoculum and the end of the experiment were quantified with a chi-squared test using the “stats” package in R v. […]

## CNC(=O)Oc1cccc2ccccc12 [Carbaryl]
1960 pool
  change in occurrence of genotypes versus initial inoculum: did not experience a significant change in the number of genotypes
1980 pool
  change in occurrence of genotypes versus initial inoculum: significantly decrease in the number of genotypes and almost disappeared
1999 pool
  change in occurrence of genotypes versus initial inoculum: did not experience a significant change in the number of genotypes
